Test system: 857933-349-R-J2-PDC complex spheroids, viability
Test: Anticancer human tumor 857933-349-R-J2-PDC patient-derived colon adenocarcinoma cell line growth inhibition [GQUAD]
Settings: for IC50: curve of first compound; for viability, T/C: stronger effect = lower value
Procedure, shortened: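 Viability of tumor cells grown as complex spheroids with endothelial and stromal cells, exposed to drug combinations. Top concentration at or near clinical Cmax (else 10 microM), diluted in half-log increments.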

[1] = second compound 0.0316 µM, first compound 0.000999 µM
[2] = second compound 0.0316 µM, first compound 0.00316 µM
[3] = second compound 0.0316 µM, first compound 0.00999 µM
[4] = second compound 0.0316 µM, first compound 0.0316 µM
[5] = second compound 0.0316 µM, first compound 0.0999 µM
[6] = second compound 0.0316 µM, first compound 0.316 µM
[7] = second compound 0.1 µM, first compound 0.000999 µM
[8] = second compound 0.1 µM, first compound 0.00316 µM
[9] = second compound 0.1 µM, first compound 0.00999 µM
[10] = second compound 0.1 µM, first compound 0.0316 µM
[11] = second compound 0.1 µM, first compound 0.0999 µM
[12] = second compound 0.1 µM, first compound 0.316 µM
[13] = second compound 0.316 µM, first compound 0.000999 µM
[14] = second compound 0.316 µM, first compound 0.00316 µM
[15] = second compound 0.316 µM, first compound 0.00999 µM
[16] = second compound 0.316 µM, first compound 0.0316 µM
[17] = second compound 0.316 µM, first compound 0.0999 µM
[18] = second compound 0.316 µM, first compound 0.316 µM
[19] = second compound 1 µM, first compound 0.000999 µM
[20] = second compound 1 µM, first compound 0.00316 µM
[21] = second compound 1 µM, first compound 0.00999 µM
[22] = second compound 1 µM, first compound 0.0316 µM
[23] = second compound 1 µM, first compound 0.0999 µM
[24] = second compound 1 µM, first compound 0.316 µM
[25] = second compound 3.16 µM, first compound 0.000999 µM
[26] = second compound 3.16 µM, first compound 0.00316 µM
[27] = second compound 3.16 µM, first compound 0.00999 µM
[28] = second compound 3.16 µM, first compound 0.0316 µM
[29] = second compound 3.16 µM, first compound 0.0999 µM
[30] = second compound 3.16 µM, first compound 0.316 µM
[31] = second compound 10 µM, first compound 0.000999 µM
[32] = second compound 10 µM, first compound 0.00316 µM
[33] = second compound 10 µM, first compound 0.00999 µM
[34] = second compound 10 µM, first compound 0.0316 µM
[35] = second compound 10 µM, first compound 0.0999 µM
[36] = second compound 10 µM, first compound 0.316 µM
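Note: spheroids exposed to compounds for one week before readout.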
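Throughout, for viability, T/C: percent viability relative to vehicle DMSO wells taken as 100%.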

`CCc1c2c(nc3ccc(O)cc13)-c1cc3c(c(=O)n1C2)COC(=O)[C@]3(O)CC` + Cc1cnc(CNC(=O)c2c(=O)c3ccc(N4CCCN(C)CC4)nc3n3c2sc2ccccc23)cn1 showed an IC50 (second compound 0.0316 µM) of 3.53 nM, an IC50 (second compound 0.1 µM) of 3.89 nM and an IC50 (second compound 0.316 µM) of under 0.999 nM. It also gave an IC50 (second compound 1 µM) of under 0.999 nM, an IC50 (second compound 3.16 µM) of under 0.999 nM and an IC50 (second compound 10 µM) of under 0.999 nM. It also gave a viability, T/C [1] of 89%, a viability, T/C [2] of 43.6% and a viability, T/C [3] of 41.9%. For the same molecule, the viability, T/C [4] was 16.5%, the viability, T/C [5] was 10.4% and the viability, T/C [6] was 8.23%. The viability, T/C [7] was 55.4%, the viability, T/C [8] was 55.9% and the viability, T/C [9] was 31.9%. For the same molecule, the viability, T/C [10] was 11%, the viability, T/C [11] was 6.26% and the viability, T/C [12] was 3.59%. For the same molecule, the viability, T/C [13] was 25.9%, the viability, T/C [14] was 17.3% and the viability, T/C [15] was 5.28%. It also gave a viability, T/C [16] of 2.97%, a viability, T/C [17] of 2.84% and a viability, T/C [18] of 0.55%. The viability, T/C [19] was 3.82%, the viability, T/C [20] was 3.55% and the viability, T/C [21] was 2.71%. The viability, T/C [22] was 1.95%, the viability, T/C [23] was 1.2% and the viability, T/C [24] was 0.14%. It also gave a viability, T/C [25] of 2.34%, a viability, T/C [26] of 1.9% and a viability, T/C [27] of 1.86%. It also gave a viability, T/C [28] of 0.77%, a viability, T/C [29] of 0.1% and a viability, T/C [30] of 0.13%. The viability, T/C [31] was 1.54%, the viability, T/C [32] was 0.97% and the viability, T/C [33] was 0.21%. The viability, T/C [34] was 0.17%, the viability, T/C [35] was 0.16% and the viability, T/C [36] was 0.19%.

`COc1ccc([C@@H](O)c2cc(-c3ncnc4cc(N5CCOCC5)ccc34)c(F)cc2Cl)nn1` + Cc1cnc(CNC(=O)c2c(=O)c3ccc(N4CCCN(C)CC4)nc3n3c2sc2ccccc23)cn1 was tested, and the IC50 (second compound 0.0316 µM) was 712 nM, the IC50 (second compound 0.1 µM) was 179 nM and the IC50 (second compound 0.316 µM) was under 31.6 nM. For the same molecule, the IC50 (second compound 1 µM) was under 31.6 nM, the IC50 (second compound 3.16 µM) was under 31.6 nM and the IC50 (second compound 10 µM) was under 31.6 nM. For the same molecule, the viability, T/C [4] was 95.5%, the viability, T/C (second compound 0.0316 µM, first compound 0.1 µM) was 81.5% and the viability, T/C [6] was 58%. The viability, T/C (second compound 0.0316 µM, first compound 1 µM) was 47.1%, the viability, T/C (second compound 0.0316 µM, first compound 3.16 µM) was 43% and the viability, T/C (second compound 0.0316 µM, first compound 10 µM) was 38%. For the same molecule, the viability, T/C [10] was 59.5%, the viability, T/C (second compound 0.1 µM, first compound 0.1 µM) was 59.5% and the viability, T/C [12] was 40.9%. The viability, T/C (second compound 0.1 µM, first compound 1 µM) was 25.9%, the viability, T/C (second compound 0.1 µM, first compound 3.16 µM) was 23.2% and the viability, T/C (second compound 0.1 µM, first compound 10 µM) was 26.5%. It also gave a viability, T/C [16] of 26.5%, a viability, T/C (second compound 0.316 µM, first compound 0.1 µM) of 26.6% and a viability, T/C [18] of 14.2%. It also gave a viability, T/C (second compound 0.316 µM, first compound 1 µM) of 3.09%, a viability, T/C (second compound 0.316 µM, first compound 3.16 µM) of 2.64% and a viability, T/C (second compound 0.316 µM, first compound 10 µM) of 2.37%. The viability, T/C [22] was 4.74%, the viability, T/C (second compound 1 µM, first compound 0.1 µM) was 3.32% and the viability, T/C [24] was 3.45%. For the same molecule, the viability, T/C (second compound 1 µM, first compound 1 µM) was 2.29%, the viability, T/C (second compound 1 µM, first compound 3.16 µM) was 1.33% and the viability, T/C (second compound 1 µM, first compound 10 µM) was 1.08%. The viability, T/C [28] was 2.27%, the viability, T/C (second compound 3.16 µM, first compound 0.1 µM) was 2.54% and the viability, T/C [30] was 2.01%. It also gave a viability, T/C (second compound 3.16 µM, first compound 1 µM) of 1.72%, a viability, T/C (second compound 3.16 µM, first compound 3.16 µM) of 1.23% and a viability, T/C (second compound 3.16 µM, first compound 10 µM) of 0.95%. For the same molecule, the viability, T/C [34] was 1.48%, the viability, T/C (second compound 10 µM, first compound 0.1 µM) was 2.1% and the viability, T/C [36] was 0.71%. For the same molecule, the viability, T/C (second compound 10 µM, first compound 1 µM) was 1.8%, the viability, T/C (second compound 10 µM, first compound 3.16 µM) was 0.73% and the viability, T/C (second compound 10 µM, first compound 10 µM) was 0.29%.

`Cn1ncnc1[C@H]1c2n[nH]c(=O)c3cc(F)cc(c23)N[C@@H]1c1ccc(F)cc1` + Cc1cnc(CNC(=O)c2c(=O)c3ccc(N4CCCN(C)CC4)nc3n3c2sc2ccccc23)cn1 showed an IC50 (second compound 0.0316 µM) of over 316 nM, an IC50 (second compound 0.1 µM) of over 316 nM and an IC50 (second compound 0.316 µM) of under 0.999 nM. For the same molecule, the IC50 (second compound 1 µM) was under 0.999 nM, the IC50 (second compound 3.16 µM) was under 0.999 nM and the IC50 (second compound 10 µM) was under 0.999 nM. It also gave a viability, T/C [1] of 88.5%, a viability, T/C [2] of 89.1% and a viability, T/C [3] of 93.4%. The viability, T/C [4] was 95%, the viability, T/C [5] was 88.9% and the viability, T/C [6] was 81.7%. It also gave a viability, T/C [7] of 59.6%, a viability, T/C [8] of 73.6% and a viability, T/C [9] of 62.5%. The viability, T/C [10] was 71.9%, the viability, T/C [11] was 73.5% and the viability, T/C [12] was 65.6%. It also gave a viability, T/C [13] of 28.8%, a viability, T/C [14] of 27.8% and a viability, T/C [15] of 27.1%. For the same molecule, the viability, T/C [16] was 22.5%, the viability, T/C [17] was 29.8% and the viability, T/C [18] was 31.5%. For the same molecule, the viability, T/C [19] was 7%, the viability, T/C [20] was 5.78% and the viability, T/C [21] was 5.4%. It also gave a viability, T/C [22] of 5.4%, a viability, T/C [23] of 5.1% and a viability, T/C [24] of 5.12%. For the same molecule, the viability, T/C [25] was 2.09%, the viability, T/C [26] was 2.13% and the viability, T/C [27] was 2.38%. For the same molecule, the viability, T/C [28] was 2.9%, the viability, T/C [29] was 3.1% and the viability, T/C [30] was 2.73%. For the same molecule, the viability, T/C [31] was 1.74%, the viability, T/C [32] was 2.35% and the viability, T/C [33] was 2.39%. The viability, T/C [34] was 2.68%, the viability, T/C [35] was 2.08% and the viability, T/C [36] was 2.52%.

From PubChem BioAssay AID2060491 (Molecular Pharmacology Branch, DTP, NCI, 2025)
